Measured values taken from patent US9963482B2, “Phosphatidylinositol-3-kinase inhibitor and pharmaceutical composition” (Tohoku University, priority 2011, dated 2018).

Tests used:
Format in all cases: cell-based, human
CO115 cells = test: Cytotoxic effect by MTT assay, CO115; details: CO115, 24 hours
Protocol: (§1) The human culture cells used were colon cancer cell lines (HCT116, CO115, and RKO). HCT116 and RKO were obtained from American Type Culture Collection (ATCC). CO115 was obtained from John M. Mariadason (Ludwig Institute for Cancer Research, Melbourne, Australia). The cells were cultured at 37° C. in the presence of 5% CO2 by using RPMI1640 medium containing inactivated fetal bovine serum at the concentration of 10%.
(§2) After 24 hours, the number of live cells was determined by using “Cell counting kit-8” (trade name, manufactured by DOJINDO CO., LTD). […] The amount of formazan dye and the number of live cells are in proportional relationship, and by measuring the absorbance of formazan at 450 nm using a microplate reader (trade name: “SpectraMax M2e”, manufactured by Molecular Devices), the number of live cells was counted.

HCT116 cells = test: Cytotoxic effect by MTT assay, HCT116; details: HCT116, 24 hours, 5 nM to 500 nM
Protocol: as §1, §2

RKO cells = test: Cytotoxic effect by MTT assay, RKO; details: 24 hours, 5 nM to 500 nM
Protocol: as §1, §2

[1] = tested on: AKT pathway in PC3 (prostate cancer) cells; test: AKT pathway inhibition by Western blotting in PC3 cells; details: 180 minutes
Protocol: PC3 cells were obtained from Cell Resource Center for Medical Research of Institute of Development, Aging, and Cancer, Tohoku University. The cells were cultured at 37° C. in the presence of 5% CO2 by using RPMI1640 medium containing inactivated fetal bovine serum at the concentration of 10%.
Western blotting was performed as follows. Various kinds of the cells treated with each compound were collected and lysed in a lysis buffer (500 mM Tris-HCl pH 7.5, 100 mM NaCl, 2 mM EDTA, 1 mM sodium orthovanadate, 1% NP-40, and 1% protease inhibitor cocktail, manufactured by SIGMA-ALDRICH). After centrifugation, the supernatants were collected.
The followings were used as primary antibodies.
As a secondary antibody, “Alexa Fluor680IgG” (trade name, manufactured by Invitrogen) was used. By using “Odyssey Infrared Imaging System” (trade name, manufactured by LI-COR), expression of the protein of interest was determined.

CC(C)[C@H]1NC(=O)CC2/C=C/CCSSCC(NC1=O)C(=O)N[C@H](Cc1cccc3ccccc13)C(=O)NCC(=O)O2 (some centres unmarked) [FK-A11]
cell death (CO115 cells; from 500 nM): strong cell death | cell death (CO115 cells; up to 50 nM): resistant | cell death (HCT116 cells): significant cell death | cell death (RKO cells): significant cell death | inhibition of AKT phosphorylation compared with FK-A5 and FK228 [1]: occurred at a lower concentration than FK-A5 and FK228
